Results published in patent US10336702B2, “Pharmaceutically active compounds” (BERGENBIO ASA, priority 2015, dated 2019).

Tests used:
[1] = tested on: MDA-MB-231D3H2LN/GFP-Luc mammary carcinoma cells; assay: Lung metastasis after tail vein injection of TNBC cells; type: in vivo, NSG mice; conditions: 25 mg/kg twice a day
Experimental: Mice injected with MDA-MB-231D3H2LN/GFP-Luc mammary carcinoma cells and treated with vehicle or EX67 (25 mg/kg b.i.d.) over the course of 14 days were injected with D-luciferin (150 mg/kg) IP 10 minutes before being imaged. Whole-body imaging was performed on an Optix MX2 Small Animal Molecular Imager to measure the total photon count for each animal±SEM. n=10 for vehicle and n=10 for EX67 group.
The cellular program of epithelial to mesenchymal transition (EMT) is utilized by tumor cells to metastasize. The effect of EX67 on lung metastases was evaluated in a TNBC model.
NSG mice were injected in the tail vein with 500 000 MDA-MB-231D3H2LN/GFP-Luc mammary carcinoma cells. Mice were treated with Vehicle or 25 mg/kg EX67 twice a day. Metastases to the lung were evaluated by in vivo imaging after 3 weeks. Lung metastases were also evaluated macroscopically at the day of culling (see FIG. 14).
After 14 days, lung metastases were detected in 10/10 mice treated with Vehicle and 7/10 mice treated with EX67.

p-Akt3 in WM115 cells = target: T1, p-Akt3 in WM115 cells (Homo sapiens, UniProt Q9Y243); assay: Phospho-Akt cellular SureFire assay, p-Akt3 in WM115 cells; type: cell-based; conditions: insulin stimulated, read-out: Biological Assay 2 IC50 (nM) Akt3 WM115
T1 construct: SureFire assays to detect cellular p-Akt1, p-Akt2 and p-Akt3 levels in WM115 cells (Akt2/3) and LNCaP cells (Akt1); endogenous in cells; host or cells: WM115 (ECACC 91061232), insulin-stimulated
In short: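 WM115 cells were serum-reduced to 0.1% FBS, stimulated with 100 nM insulin for 10 min, then exposed to compound (0.3% DMSO) for 15 min at 37 °C. Lysates were assayed for Thr308-phosphorylated Akt3 by AlphaScreen SureFire using an isoform-specific total Akt3 capture antibody. IC50 was derived from a 4-parameter fit.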

p-Akt2 in WM115 cells = target: T2, p-Akt2 in WM115 cells (Homo sapiens, UniProt P31751); assay: Phospho-Akt cellular SureFire assay, p-Akt2 in WM115 cells; type: cell-based; conditions: insulin stimulated, read-out: Biological Assay 2 IC50 (nM) Akt2 WM115
T2 construct: SureFire assays to detect cellular p-Akt1, p-Akt2 and p-Akt3 levels in WM115 cells (Akt2/3) and LNCaP cells (Akt1); endogenous in cells; host or cells: WM115 (ECACC 91061232), insulin-stimulated
In short: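 WM115 cells in 0.1% FBS medium stimulated 10 min with 100 nM insulin, then exposed to compound for 15 min at 37° C (0.3% DMSO final). Lysates assayed by AlphaScreen with anti-(pThr308)Akt and isoform-specific total Akt2 antibodies; IC50 from 4-parameter fit.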

Akt1 = target: T3, Akt1 (Homo sapiens, UniProt P31749); assay: Akt activation assay (PDK1-mediated activation, LANCE Ultra crosstide TR-FRET), Akt1; type: biochemical; conditions: read-out: Biological Assay 1 IC50 (nM) Akt1
T3 construct: unspecified tag, removed (detagged) (cleaved yes); purchased SignalChem and Proteros (Akt1); Merck Millipore (PDK1) 14-452 (PDK1); none given for Akt1
In short: (§1)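 Compound + Akt preinc.; start w/ PDK1 5 nM, DOPS/DOPC 5.5 μM each, PIP3 0.55 μM, ATP 100 μM, Ulight-crosstide 100 nM; HEPES pH 7.5, 10 mM MgCl2, 2 mM DTT, 1% DMSO; 30 min; EDTA stop; Eu-Ab TR-FRET; 4-PL IC50.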

Akt2 = target: T4, Akt2 (Homo sapiens, UniProt P31751); assay: Akt activation assay (PDK1-mediated activation, LANCE Ultra crosstide TR-FRET), Akt2; type: biochemical; conditions: read-out: Biological Assay 1 IC50 (nM) Akt2
T4 construct: unspecified tag, removed (detagged) (cleaved yes); purchased SignalChem and Proteros (Akt2); Merck Millipore (PDK1) 14-452 (PDK1); none given for Akt2
In short: as §1

Akt3 = target: T5, Akt3 (Homo sapiens, UniProt Q9Y243); assay: Akt activation assay (PDK1-mediated activation, LANCE Ultra crosstide TR-FRET), Akt3; type: biochemical; conditions: read-out: Biological Assay 1 IC50 (nM) Akt3
T5 construct: unspecified tag, removed (detagged) (cleaved yes); purchased SignalChem and Proteros (Akt3); Merck Millipore (PDK1) 14-452 (PDK1); none given for Akt3
In short: as §1

p-Akt1 in LNCaP cells = target: T6, p-Akt1 in LNCaP cells (Homo sapiens, UniProt P31749); assay: Phospho-Akt cellular SureFire assay, p-Akt1 in LNCaP cells; type: cell-based; conditions: read-out: Biological Assay 2 IC50 (nM) Akt1 LNCaP
T6 construct: SureFire assays to detect cellular p-Akt1, p-Akt2 and p-Akt3 levels in WM115 cells (Akt2/3) and LNCaP cells (Akt1); endogenous in cells; host or cells: LNCaP (ECACC 89110211)
In short: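 LNCaP cells, 5×10^4/well, seeded overnight, switched to 0.1% FBS medium without insulin stimulation, then compound for 15 min at 37 °C (0.3% DMSO). Lysate p-Akt1 (pThr308) by AlphaScreen SureFire, two 2 h incubations at room temperature; IC50 by 4-parameter fit.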

T4 sequence (P31751 whole entry): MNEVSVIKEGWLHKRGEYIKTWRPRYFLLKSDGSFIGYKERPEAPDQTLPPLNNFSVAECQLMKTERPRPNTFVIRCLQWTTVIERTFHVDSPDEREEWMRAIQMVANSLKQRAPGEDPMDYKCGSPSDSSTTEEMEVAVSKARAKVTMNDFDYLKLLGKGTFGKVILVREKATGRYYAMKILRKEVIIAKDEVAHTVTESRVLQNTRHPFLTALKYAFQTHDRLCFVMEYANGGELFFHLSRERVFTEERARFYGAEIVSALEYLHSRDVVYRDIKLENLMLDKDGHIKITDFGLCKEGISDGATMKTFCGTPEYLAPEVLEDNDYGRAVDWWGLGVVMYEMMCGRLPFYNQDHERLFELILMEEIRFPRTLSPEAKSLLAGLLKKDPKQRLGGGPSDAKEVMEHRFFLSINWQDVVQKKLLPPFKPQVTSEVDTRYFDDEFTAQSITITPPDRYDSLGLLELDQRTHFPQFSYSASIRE
T2 sequence (P31751 whole entry): as above
T6 sequence (P31749 whole entry): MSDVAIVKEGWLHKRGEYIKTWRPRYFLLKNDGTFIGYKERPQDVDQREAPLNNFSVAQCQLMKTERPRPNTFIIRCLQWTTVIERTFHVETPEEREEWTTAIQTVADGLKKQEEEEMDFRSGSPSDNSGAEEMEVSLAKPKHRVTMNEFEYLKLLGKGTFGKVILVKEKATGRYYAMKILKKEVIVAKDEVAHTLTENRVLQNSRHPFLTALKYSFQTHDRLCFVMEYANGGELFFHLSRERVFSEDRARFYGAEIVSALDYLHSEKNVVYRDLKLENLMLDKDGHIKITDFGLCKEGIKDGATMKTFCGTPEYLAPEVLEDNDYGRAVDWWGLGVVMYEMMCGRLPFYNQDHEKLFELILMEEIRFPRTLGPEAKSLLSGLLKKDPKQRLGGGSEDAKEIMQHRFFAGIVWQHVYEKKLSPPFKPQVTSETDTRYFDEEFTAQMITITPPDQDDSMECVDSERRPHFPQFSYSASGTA
T3 sequence (P31749 whole entry): as above
T1 sequence (Q9Y243 whole entry): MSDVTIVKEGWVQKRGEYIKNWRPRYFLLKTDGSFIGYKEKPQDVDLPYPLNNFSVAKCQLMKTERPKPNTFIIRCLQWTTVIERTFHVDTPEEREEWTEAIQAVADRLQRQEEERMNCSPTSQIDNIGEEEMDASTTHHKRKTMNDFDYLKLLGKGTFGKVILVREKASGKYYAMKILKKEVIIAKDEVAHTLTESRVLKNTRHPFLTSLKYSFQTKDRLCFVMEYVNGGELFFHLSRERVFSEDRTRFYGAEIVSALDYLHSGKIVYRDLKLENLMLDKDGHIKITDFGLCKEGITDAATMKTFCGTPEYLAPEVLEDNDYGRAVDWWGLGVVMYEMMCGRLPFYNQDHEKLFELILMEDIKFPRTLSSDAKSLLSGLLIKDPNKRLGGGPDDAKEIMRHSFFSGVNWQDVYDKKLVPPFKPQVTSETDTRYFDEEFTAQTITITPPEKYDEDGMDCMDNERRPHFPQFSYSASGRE
T5 sequence (Q9Y243 whole entry): as above

Compound | lung metastases [1] | mice with lung metastases detected ([1]; after 14 days, vehicle 10/10) | IC50 (p-Akt3 in WM115 cells) | IC50 (p-Akt2 in WM115 cells) | IC50 (Akt1) | IC50 (Akt2) | IC50 (Akt3) | IC50 (p-Akt1 in LNCaP cells)
COC(=O)N(C)[C@H]1CC[C@H](CC(=O)Nc2cc(-c3ccccc3)c(-c3ccc([C@]4(N)C[C@](C)(O)C4)cc3)cn2)CC1 [EX67] | prevented metastases compared to vehicle-treated mice in a sub-set of animals | 7/10 | – | – | – | – | – | –
COC(=O)N(C)[C@H]1CC[C@H](CC(=O)Nc2cc(-c3ccsc3)c(-c3ccc(C4(N)CC4)c(F)c3)nn2)CC1 [Example A100, Methyl (trans-4-(2-((6-(4-(1-aminocyclopropyl)-3-fluorophenyl)-5-(thiophen-3-yl)pyridazin-3-yl)amino)-2-oxoethyl)cyclohexyl)(methyl)carbamate] | – | – | 1400 nM | > 30000 nM | > 30000 nM | > 30000 nM | 520 nM | > 30000 nM
CCC(=O)N(C)[C@H]1CC[C@H](CC(=O)Nc2cc(-c3ccsc3)c(-c3ccc(C4(N)CC4)c(F)c3)nn2)CC1 [Example A101, N-(trans-4-(2-((6-(4-(1-aminocyclopropyl)-3-fluorophenyl)-5-(thiophen-3-yl)pyridazin-3-yl)amino)-2-oxoethyl)cyclohexyl)-N-methylpropionamide] | – | – | 350 nM | > 30000 nM | > 30000 nM | 11000 nM | 140 nM | > 30000 nM
CCC(=O)N(C)[C@H]1CC[C@H](CC(=O)Nc2cc(-c3ccccc3)c(-c3ccc(C4(N)CC4)c(F)c3)nn2)CC1 [Example A103, N-(trans-4-(2-((6-(4-(1-aminocyclopropyl)-3-fluorophenyl)-5-phenylpyridazin-3-yl)amino)-2-oxoethyl)cyclohexyl)-N-methylpropionamide] | – | – | 730 nM | > 30000 nM | > 30000 nM | 2300 nM | 110 nM | > 30000 nM
COC(=O)N(C)[C@H]1CC[C@H](CC(=O)Nc2cc(-c3ccccc3)c(-c3ccc(C4(N)CC4)c(F)c3)nn2)CC1 [Example A104, Methyl (trans-4-(2-((6-(4-(1-aminocyclopropyl)-3-fluorophenyl)-5-phenylpyridazin-3-yl)amino)-2-oxoethyl)cyclohexyl)(methyl)carbamate] | – | – | 1000 nM | > 30000 nM | > 30000 nM | 5600 nM | 200 nM | > 30000 nM
COC(=O)N(C(C)C)[C@H]1CC[C@H](CC(=O)Nc2cc(-c3ccccc3)c(-c3ccc([C@]4(N)C[C@](C)(O)C4)cc3)cn2)CC1 [Example A105, Methyl (trans-4-(2-((5-(4-(trans-1-amino-3-hydroxy-3-methylcyclobutyl)phenyl)-4-phenylpyridin-2-yl)amino)-2-oxoethyl)cyclohexyl)(isopropyl)carbamate] | – | – | 300 nM | 5100 nM | > 15000 nM | 220 nM | 20 nM | 9000 nM
CCC(=O)N(C(C)C)[C@H]1CC[C@H](CC(=O)Nc2cc(-c3ccccc3)c(-c3ccc([C@]4(N)C[C@](C)(O)C4)cc3)cn2)CC1 [Example A107, N-(trans-4-(2-((5-(4-(trans-1-amino-3-hydroxy-3-methylcyclobutyl)phenyl)-4-phenylpyridin-2-yl)amino)-2-oxoethyl)cyclohexyl)-N-isopropylpropionamide] | – | – | 76 nM | 2200 nM | 8100 nM | 230 nM | 23 nM | 7100 nM
N-(6-(4-(trans-1-amino-3-hydroxy-3-methylcyclobutyl)phenyl)-5-phenylpyridin-3-yl)-2-(trans-4-(N-ethylacetamido)cyclohexyl)acetamide [Example 119] | – | – | 22 nM | 410 nM | 5900 nM | 70 nM | 5 nM | 2300 nM
